Laboratory results as given in publication PMC9228412, “Synthesis and Activity of Triazole-Adenosine Analogs as Protein Arginine Methyltransferase 5 Inhibitors” (Molecules, 2022).
Like-named read-outs stand apart in the source and are kept apart here.

What was measured:
PRMT1 = PRMT1 (Homo sapiens, UniProt Q99873); assay: scintillation proximity assay (SPA) of PRMT1 methyltransferase activity; format: biochemical; details: for remaining activity at 10 µM: 0.5 h, remaining activity of the enzyme, single point SPA test, inhibitor 10 μM, read-out: Relative Activity of PRMT1 at 10 μM
PRMT1, sequence (Q99873 whole entry, species assumed): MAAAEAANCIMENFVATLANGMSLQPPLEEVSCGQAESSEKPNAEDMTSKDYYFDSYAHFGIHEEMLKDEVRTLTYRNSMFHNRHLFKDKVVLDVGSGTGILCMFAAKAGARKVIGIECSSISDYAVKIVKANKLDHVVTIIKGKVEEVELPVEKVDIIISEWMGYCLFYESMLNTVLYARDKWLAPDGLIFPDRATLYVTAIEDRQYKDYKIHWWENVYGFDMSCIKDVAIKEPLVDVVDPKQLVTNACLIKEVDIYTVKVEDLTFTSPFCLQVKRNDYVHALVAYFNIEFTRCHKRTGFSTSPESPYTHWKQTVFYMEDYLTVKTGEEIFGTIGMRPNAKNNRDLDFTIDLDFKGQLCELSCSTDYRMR
Experimental: (§1) The methyltransferase activities of PRMT5 and PRMT1 in the absence and presence of the synthetic inhibitors were measured by using the scintillation proximity assay (SPA) protocol (Table 1). In the initial test, the inhibitor concentration was set at 10 μM. H4(1–20)K20biotin [Ac-[…](biotin)-NH2] was used as the peptide substrate, at a final concentration of 0.5 μM. ^3H-SAM was used as the methyl donor at 0.5 μM. SAH was used as a control inhibitor. […] Analysis of the biochemical activity results against PRMT5 disclosed a few interesting structure–activity relationship (SAR) trends. […] If the hydroxyl group of 3 was changed to an amine (6), the potency was improved; however, the selectivity was abolished. Generally, compounds that contained positive charges (6, 20, 21, 22, 24) near the triazole ring had further improved potencies.
Inhibitor was dissolved in water to create a 10 mM stock concentration. This was then diluted in buffer (50 mM HEPES pH 8, 10 mM NaCl, 0.5 mM EDTA, 0.5 mM DTT in H2O) to create a series of working concentrations centered around an anticipated IC50. [H]^3-SAM and substrate were diluted together in buffer to working concentrations of […], respectively. To each well in a 96-well plate, 6 μL of the inhibitor solution was added, with negative and positive controls receiving buffer. In total, 6 μL of the [H]^3-SAM/substrate solution was then added to each well. The enzyme was then diluted in buffer to a working concentration of 0.83 μM, and 18 μL was added to each well, with negative controls receiving 18 μL of buffer. The plate was covered, and the reaction was allowed to run for 30 min and was then quenched with the addition of 30 μL of 100% iPrOH followed by 60 μL of 50% iPrOH in H2O. In total, 10 μL of 20 mg/mL streptavidin-coated scintillant beads were added and the plate was read using a MicroBeta (Perkin Elmer, Waltham, MA, USA) plate reader. The CPM counts in the absence of an inhibitor for each data set were considered as 100% activity. In the absence of the enzyme and inhibitor, the CPM counts in each data set were defined as background (0%).

PRMT5 = biological target: T1, PRMT5 (Homo sapiens, UniProt O14744); assay: scintillation proximity assay (SPA) of PRMT5 methyltransferase activity; format: biochemical; details: for remaining activity at 10 µM: 0.5 h, remaining activity of the enzyme, single point SPA test, inhibitor 10 μM, read-out: Relative Activity of PRMT5 at 10 μM
T1 construct: His-tag; made in house; host or cells: Sf9 insect cells (Bac-to-Bac baculovirus)
T1 sequence (O14744 whole entry): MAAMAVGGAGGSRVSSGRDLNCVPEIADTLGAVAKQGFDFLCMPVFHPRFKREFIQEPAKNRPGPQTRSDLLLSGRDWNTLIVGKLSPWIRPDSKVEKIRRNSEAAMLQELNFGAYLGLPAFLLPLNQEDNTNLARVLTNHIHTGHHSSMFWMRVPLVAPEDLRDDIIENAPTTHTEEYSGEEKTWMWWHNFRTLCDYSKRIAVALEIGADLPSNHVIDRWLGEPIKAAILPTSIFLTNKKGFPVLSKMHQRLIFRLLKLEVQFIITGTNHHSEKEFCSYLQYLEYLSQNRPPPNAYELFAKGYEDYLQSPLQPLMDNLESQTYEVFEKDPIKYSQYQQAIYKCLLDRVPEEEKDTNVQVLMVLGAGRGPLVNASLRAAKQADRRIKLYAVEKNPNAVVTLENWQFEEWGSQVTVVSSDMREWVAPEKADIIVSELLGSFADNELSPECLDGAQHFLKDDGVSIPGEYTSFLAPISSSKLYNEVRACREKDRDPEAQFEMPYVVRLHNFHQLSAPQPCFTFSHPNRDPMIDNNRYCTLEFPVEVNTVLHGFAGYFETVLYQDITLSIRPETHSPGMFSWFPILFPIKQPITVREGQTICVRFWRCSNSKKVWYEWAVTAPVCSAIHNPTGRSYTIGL
T1 sequence (Q9BQA1 whole entry partner): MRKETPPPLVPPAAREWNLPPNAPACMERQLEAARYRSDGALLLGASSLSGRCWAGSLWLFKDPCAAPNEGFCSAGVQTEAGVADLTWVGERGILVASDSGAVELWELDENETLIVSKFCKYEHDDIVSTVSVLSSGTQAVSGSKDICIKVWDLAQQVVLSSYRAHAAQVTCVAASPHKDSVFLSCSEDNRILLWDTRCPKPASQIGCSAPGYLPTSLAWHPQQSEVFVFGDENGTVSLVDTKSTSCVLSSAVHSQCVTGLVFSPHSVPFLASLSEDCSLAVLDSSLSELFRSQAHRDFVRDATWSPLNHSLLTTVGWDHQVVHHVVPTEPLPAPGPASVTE
Experimental: as §1
Human recombinant His-tag PRMT5 was co-expressed with His-tag MEP50 using the Bac-to-Bac baculovirus expression system (Invitrogen, Life Technologies, Carlsbad, CA, USA) as previously described. Briefly, pFB-LIC-Bse-PRMT5 and pFB-LIC-Bse-MEP50 were heat shock transformed in the DH10Bac E. coli to obtain the recombinant bacmids, and the bacmids were extracted using the PureLink HiPure Plasmid Miniprep Kit (Invitrogen, Thermo Scientific, Carlsbad, CA, USA). The purity and concentration of the plasmid were measured by a Nanodrop. Sf9 cells were cultured in Sf-900 II SFM medium until the cell density reached 1.5 × 10^6 cells/mL and cell viability was more than 95%. Cells were plated in a 6-well tissue culture plate at a density of 4 × 10^5 cells/mL per well. In total, 2 µg of PRMT5 and MEP50 recombinant bacmid were transfected into each well of cells. After 5 h of transfection, the transfection medium was replaced by 2 mL of Sf-900 II SFM + 100 U P/S per well. The medium was collected and centrifuged at 1000 rpm for 5 min to obtain the supernatant P1 viral stock after 7 days of inoculation at 27.5 °C. To obtain a higher titer of viral stock, P1 viral stock was amplified in a 6-well tissue culture plate containing 2 × 10^6 cells per well. In total, 0.1 MOI of P1 virus stock was added into each well. After 7 days of incubation at 27.5 °C, the cell medium was centrifuged at 1000 rpm for 5 min to obtain the P2 viral stock in the supernatant. The Baculovirus plaque assay was performed to determine the viral titer concentration; the target concentration range was 1 × 10^7–1 × 10^8 IFU/mL.
For the expression of PRMT5 and MEP50, Sf9 insect cells were cultured in suspension at 27.5 °C at a speed of 130 rpm in Expression Systems ESF 921 medium with 100 U P/S. In total, 200 mL of Sf9 cell culture was inoculated with PRMT5 and MEP50 P2 viral stocks when the cell density reached 1.5 × 10^6 cells/mL. After incubation for 72 h at 27.5 °C, the cells were harvested and centrifuged. PRMT5 and MEP50 protein were collected in the cell pellet for further purification. Cell pellets were disrupted twice at 100 psi in 25 mL of cell lysis buffer (50 mM Tris pH 8, 300 mM NaCl, 10% glycerol, 0.1% Triton X-100, 1 mM PMSF). Before the Ni-NTA purification, 10 mL of Ni-NTA resin (EMD Millipore, Burlington, MA, USA) was loaded into a 50 mL column and equilibrated with equilibration buffer (50 mM Tris pH 8, 250 mM NaCl, 30 mM Imidazole, 10% glycerol, 1 mM TCEP, 1 mM PMSF). After 60 min of cell lysate centrifugation at 4 °C at 18,000 rpm, the cell lysate supernatant was incubated with the equilibrated nickel resin. The resin was washed with equilibration buffer and protein was eluted with elution buffer (50 mM Tris pH 8, 250 mM NaCl, 300 mM Imidazole, 10% glycerol, 1 mM TCEP, 1 mM PMSF). For the dialysis of protein, elution samples were loaded into a 10,000 MWCO SnakeSkin (Thermo Scientific, Waltham, MA, USA) dialysis bag in the storage buffer (50 mM Tris pH 8, 250 mM NaCl, 10% glycerol, 1 mM TCEP). […]

[1] = 0.5 μM H4(1–20)K20biotin, 0.5 μM 3H-SAM
[2] = SPA, concentration-dependent, 0.5 μM H4(1–20)K20biotin, 0.5 μM 3H-SAM, read-out: IC50 PRMT5 (converted)
[3] = SPA, concentration-dependent, read-out: IC50 PRMT1 (converted)

remaining activity at 10 µM (PRMT1) | remaining activity at 10 µM (PRMT5; [1]) | IC50 (PRMT5; [2]) | IC50 (PRMT1; [3]) | SMILES | IC50 (PRMT1) | IC50 (PRMT5)
77 ± 23% | 76 ± 11% | – | – | CC(C)(C)OC(=O)NCCS(=O)(=O)Cc1cn(C[C@H]2O[C@@H](n3cnc4c(N)ncnc43)[C@H](O)[C@@H]2O)nn1 [Compound 28] | – | –
93 ± 1.3% | 40 ± 3.6% | 13.2 µM | – | Nc1ncnc2c1ncn2[C@@H]1O[C@H](Cn2cc(CNCC(=O)Nc3ccccc3F)nn2)[C@@H](O)[C@H]1O [Compound 24, 2-(((1-(((2R,3S,4R,5R)-5-(6-amino-9H-purin-9-yl)-3,4-dihydroxytetrahydrofuran-2-yl)methyl)-1H-1,2,3-triazol-4-yl)methyl)amino)-N-(2-fluorophenyl)acetamide] | – | –
103 ± 5.6% | 71 ± 17% | – | – | Nc1ncnc2c1ncn2C1OC(Cn2cc(CCC(N)c3ccccc3)nn2)C(O)C1O (stereo not shown) [Compound 10] | – | –
– | – | 144 µM | > 1000 µM | COCc1cn(C[C@H]2O[C@@H](n3cnc4c(N)ncnc43)[C@H](O)[C@@H]2O)nn1 [Compound 4, (2R,3R,4S,5R)-2-(6-amino-9H-purin-9-yl)-5-((4-(methoxymethyl)-1H-1,2,3-triazol-1-yl)methyl)tetrahydrofuran-3,4-diol] | – | –
90.1 ± 5.7% | 51 ± 5.7% | 2.6 µM | – | Nc1ncnc2c1ncn2[C@@H]1O[C@H](Cn2cc(-c3ccccc3)nn2)[C@@H](O)[C@H]1O [Compound 14, (2R,3R,4S,5R)-2-(6-amino-9H-purin-9-yl)-5-((4-phenyl-1H-1,2,3-triazol-1-yl)methyl)tetrahydrofuran-3,4-diol] | – | –
– | – | – | – | CC(=O)N[C@@H](CO)C(=O)NCC(=O)N[C@@H](Cc1cn(C[C@H]2O[C@@H](n3cnc4c(N)ncnc43)[C@H](O)[C@@H]2O)nn1)C(=O)NCC(=O)N[C@@H](CCCCN)C(N)=O [Compound 30] | 46.1 µM | 45.6 µM
100 ± 4.6% | 83 ± 2.5% | – | – | Nc1cc2c(cc1F)OCC(=O)N2Cc1cn(C[C@H]2O[C@@H](n3cnc4c(N)ncnc43)[C@H](O)[C@@H]2O)nn1 [Compound 26] | – | –
123 ± 4.4% | 94.2 ± 12% | > 40 µM | – | Nc1ncnc2c1ncn2[C@@H]1O[C@H](Cn2cc(CNC(=O)c3ccccc3)nn2)[C@@H](O)[C@H]1O [Compound 15, N-((1-(((2R,3S,4R,5R)-5-(6-amino-9H-purin-9-yl)-3,4-dihydroxytetrahydrofuran-2-yl)methyl)-1H-1,2,3-triazol-4-yl)methyl)benzamide] | – | –
96.9 ± 2.2% | 74 ± 11% | – | – | Nc1ncnc2c1ncn2[C@@H]1O[C@H](Cn2cc(C(=O)O)nn2)[C@@H](O)[C@H]1O [Compound 11, 1-(((2R,3S,4R,5R)-5-(6-amino-9H-purin-9-yl)-3,4-dihydroxytetrahydrofuran-2-yl)methyl)-1H-1,2,3-triazole-4-carboxylic acid] | – | –
– | – | – | – | CC(=O)N[C@@H](CCCNC(=N)N)C(=O)N[C@@H](CCCNC(=N)N)C(=O)N[C@@H](Cc1cn(C[C@H]2O[C@@H](n3cnc4c(N)ncnc43)[C@H](O)[C@@H]2O)nn1)C(=O)N[C@@H](CCCNC(=N)N)C(=O)N[C@@H](CCCNC(=N)N)C(N)=O [Compound 29] | > 400 µM | 53.7 µM
99.3 ± 6.7% | 73 ± 12% | > 400 µM | – | Nc1ncnc2c1ncn2[C@@H]1O[C@H](Cn2cc(CCCC(=O)O)nn2)[C@@H](O)[C@H]1O [Compound 12, 4-(1-(((2R,3S,4R,5R)-5-(6-amino-9H-purin-9-yl)-3,4-dihydroxytetrahydrofuran-2-yl)methyl)-1H-1,2,3-triazol-4-yl)butanoic acid] | – | –
– | – | 27 µM | > 1000 µM | Nc1ncnc2c1ncn2[C@@H]1O[C@H](Cn2ccnn2)[C@@H](O)[C@H]1O [Compound 2, (2R,3S,4R,5R)-2-((1H-1,2,3-triazol-1-yl)methyl)-5-(6-amino-9H-purin-9-yl)tetrahydrofuran-3,4-diol] | – | –
91 ± 11% | 56 ± 10% | – | – | CCC(=O)Oc1ccc(CCc2cn(C[C@H]3O[C@@H](n4cnc5c(N)ncnc54)[C@H](O)[C@@H]3O)nn2)cc1OC(=O)C(C)C [Compound 17] | – | –
– | – | 18.9 µM | > 200 µM | Nc1ncnc2c1ncn2[C@@H]1O[C@H](Cn2cc(C[C@H](N)C(=O)O)nn2)[C@@H](O)[C@H]1O [Compound 19, (S)-2-amino-3-(1-(((2R,3S,4R,5R)-5-(6-amino-9H-purin-9-yl)-3,4-dihydroxytetrahydrofuran-2-yl)methyl)-1H-1,2,3-triazol-4-yl)propanoic acid] | – | –
97.5 ± 7.6% | 48 ± 9.7% | 3 µM | > 1000 µM | [N-]=[N+]=NC[C@H]1O[C@@H](n2cnc3c(N)ncnc32)[C@H](O)[C@@H]1O [Compound 1, 5′-azido-5′-deoxyadenosine] | – | –
92.7 ± 10% | 57 ± 4.4% | > 40 µM | – | Nc1ncnc2c1ncn2[C@@H]1O[C@H](Cn2cc(CCCCC(=O)O)nn2)[C@@H](O)[C@H]1O [Compound 13, 5-(1-(((2R,3S,4R,5R)-5-(6-amino-9H-purin-9-yl)-3,4-dihydroxytetrahydrofuran-2-yl)methyl)-1H-1,2,3-triazol-4-yl)pentanoic acid] | – | –
– | – | 4.4 µM | > 1000 µM | Nc1ncnc2c1ncn2[C@@H]1O[C@H](Cn2cc(CO)nn2)[C@@H](O)[C@H]1O [Compound 3, (2R,3R,4S,5R)-2-(6-amino-9H-purin-9-yl)-5-((4-(hydroxymethyl)-1H-1,2,3-triazol-1-yl)methyl)tetrahydrofuran-3,4-diol] | – | –

SMILES | remaining activity at 10 µM (PRMT1) | remaining activity at 10 µM (PRMT5; [1]) | IC50 (PRMT5; [2]) | IC50 (PRMT1; [3]) | IC50 (PRMT1) | IC50 (PRMT5)
C[Si](C)(C)Cc1cn(C[C@H]2O[C@@H](n3cnc4c(N)ncnc43)[C@H](O)[C@@H]2O)nn1 [Compound 9, (2R,3R,4S,5R)-2-(6-amino-9H-purin-9-yl)-5-((4-((trimethylsilyl)methyl)-1H-1,2,3-triazol-1-yl)methyl)tetrahydrofuran-3,4-diol] | – | – | > 200 µM | > 1000 µM | – | –
